Assay results published in PubChem BioAssay AID328 (DTP/NCI, 2004).
Where “and” joins values, the source holds several entries; their conditions need not be identical. Identical values can stand only once. Inconclusive results and toxic doses are left out.

System: BDF1 mice, P388 leukemia ip, median survival T/C
Assay: NCI In Vivo Anticancer Drug Screen. Data for tumor model P388 Leukemia (intraperitoneal) in B6D2F1 (BDF1) mice
Details: endpoint: median survival time, higher = longer survival
Summary of the method: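 Vehicle-dosed animals serve as the reference; survival of compound-dosed, tumour-implanted mice is divided by it.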

[1] = dose: 400.0 mg/kg/injection, schedule: Q04DX003 (ip), vehicle: Klucel (hydroxypropylcellulose) (HPC)
[2] = dose: 25.0 mg/kg/injection, schedule: Q01DX009 (ip), vehicle: saline with Tween-80
[3] = dose: 50.0 mg/kg/injection, schedule: Q01DX009 (ip), vehicle: saline with Tween-80
[4] = dose: 100.0 mg/kg/injection, schedule: Q04DX003 (ip), vehicle: Klucel (hydroxypropylcellulose) (HPC)
[5] = dose: 200.0 mg/kg/injection, schedule: Q04DX003 (ip), vehicle: Klucel (hydroxypropylcellulose) (HPC)
[6] = dose: 100.0 mg/kg/injection, schedule: Q01DX009 (ip), vehicle: saline
[7] = dose: 200.0 mg/kg/injection, schedule: Q01DX009 (ip), vehicle: saline
[8] = dose: 400.0 mg/kg/injection, schedule: Q01DX009 (ip), vehicle: saline
[9] = dose: 50.0 mg/kg/injection, schedule: Q01DX009 (ip), vehicle: Klucel (hydroxypropylcellulose) (HPC)
[10] = dose: 25.0 mg/kg/injection, schedule: Q01DX009 (ip), vehicle: saline
[11] = dose: 50.0 mg/kg/injection, schedule: Q01DX009 (ip), vehicle: saline
[12] = dose: 100.0 mg/kg/injection, schedule: Q01DX009 (ip), vehicle: saline with Tween-80

SMILES: O=C(c1ccccc1Cl)c1cccc2ccccc12
- T/C (dose: 22.0 mg/kg/injection, schedule: Q01DX009 (ip), vehicle: Klucel (hydroxypropylcellulose) (HPC)): 100 % of control
- T/C (dose: 35.0 mg/kg/injection, schedule: Q01DX009 (ip), vehicle: Klucel (hydroxypropylcellulose) (HPC)): 100 % of control
- T/C (dose: 175.0 mg/kg/injection, schedule: Q04DX003 (ip), vehicle: Klucel (hydroxypropylcellulose) (HPC)): 100 % of control
- T/C [1]: 104 % of control
- T/C (dose: 600.0 mg/kg/injection, schedule: Q04DX003 (ip), vehicle: Klucel (hydroxypropylcellulose) (HPC)): 104 % of control

SMILES: Nc1ncnc2c1cnn2CCCl
- T/C (dose: 100.0 mg/kg/injection, schedule: Q04DX003 (ip), vehicle: saline with Tween-80): 122 % of control
- T/C (dose: 200.0 mg/kg/injection, schedule: Q04DX003 (ip), vehicle: saline with Tween-80): 118 % of control

SMILES: c1cc[c]([Sn]([c]2ccccc2)([c]2ccccc2)[n]2cnc3ccccc32)cc1
- T/C (dose: 0.1 mg/kg/injection, schedule: Q01DX009 (ip), vehicle: Klucel (hydroxypropylcellulose) (HPC)): 90 % of control
- T/C (dose: 0.21 mg/kg/injection, schedule: Q01DX009 (ip), vehicle: Klucel (hydroxypropylcellulose) (HPC)): 90 % of control
- T/C (dose: 0.43 mg/kg/injection, schedule: Q01DX009 (ip), vehicle: Klucel (hydroxypropylcellulose) (HPC)): 90 % of control
- T/C (dose: 0.87 mg/kg/injection, schedule: Q01DX009 (ip), vehicle: Klucel (hydroxypropylcellulose) (HPC)): 90 % of control
- T/C (dose: 7.0 mg/kg/injection, schedule: Q01DX009 (ip), vehicle: Klucel (hydroxypropylcellulose) (HPC)): 115 % of control
- T/C (dose: 18.0 mg/kg/injection, schedule: Q04DX003 (ip), vehicle: Klucel (hydroxypropylcellulose) (HPC)): 100 % of control
- T/C (dose: 28.0 mg/kg/injection, schedule: Q04DX003 (ip), vehicle: Klucel (hydroxypropylcellulose) (HPC)): 86 % of control

SMILES: Cc1cc(C)nc(NC(N)=NCCc2ccccc2)n1
- T/C (dose: 12.5 mg/kg/injection, schedule: Q01DX009 (ip), vehicle: saline with Tween-80): 100 % of control
- T/C [2]: 95 % of control
- T/C [3]: 100 % of control

SMILES: CC(C)(Cl)CNC(=O)c1ccc([N+](=O)[O-])cc1
- T/C [4]: 91 % of control
- T/C [5]: 104 % of control
- T/C [1]: 100 % of control

SMILES: CS(=O)(=O)C(=Cc1ccccc1Cl)S(C)(=O)=O
- T/C [6]: 104 % of control
- T/C [7]: 118 % of control
- T/C [8]: 121 % of control

SMILES: CN1CCC(C(c2ccccc2)c2ccccc2)C1 (stereo not given)
- T/C [9]: 109 % of control

SMILES: NC(=O)Nc1cccc2ccccc12
- T/C [4]: 88 % of control
- T/C (dose: 200.0 mg/kg/injection, schedule: Q01DX009 (ip), vehicle: gum acacia): 92 % of control
- T/C [5]: 92 % of control
- T/C (dose: 400.0 mg/kg/injection, schedule: Q01DX009 (ip), vehicle: gum acacia): 96 % of control

SMILES: COc1cc2c(cc1OC)-c1c3c(cc4c1[C@@H](C2)N(C)CC4)OCO3
- T/C (dose: 12.5 mg/kg/injection, schedule: Q01DX009 (ip), vehicle: acid diluted with saline): 100 % of control
- T/C (dose: 25.0 mg/kg/injection, schedule: Q01DX009 (ip), vehicle: acid diluted with saline): 100 % of control
- T/C (dose: 50.0 mg/kg/injection, schedule: Q01DX009 (ip), vehicle: acid diluted with saline): 105 % of control

SMILES: c1ccc2sc(SSN3CC4CCC(CC4)C3)nc2c1
- T/C [3]: 102 % of control and 122 % of control

SMILES: Cn1ncc2c(NCCc3ccccc3)ncnc21
- T/C [2]: 100 % of control
- T/C [3]: 100 % of control

SMILES: COc1cc(NS(C)(=O)=O)ccc1Nc1c2ccccc2nc2c(C)cccc12
- T/C (dose: 1.25 mg/kg/injection, schedule: Q01DX009 (ip), vehicle: Klucel (hydroxypropylcellulose) (HPC)): 107 % of control
- T/C (dose: 2.5 mg/kg/injection, schedule: Q01DX009 (ip), vehicle: Klucel (hydroxypropylcellulose) (HPC)): 201 % of control
- T/C (dose: 17.0 mg/kg/injection, schedule: Q04DX003 (ip), vehicle: gum acacia): 250 % of control
- T/C (dose: 25.0 mg/kg/injection, schedule: Q04DX003 (ip), vehicle: gum acacia): 250 % of control

SMILES: CC(=O)CC(C)(C)c1ccccc1
- T/C [10]: 118 % of control
- T/C [11]: 111 % of control
- T/C (dose: 50.0 mg/kg/injection, schedule: Q04DX003 (ip), vehicle: saline): 105 % of control
- T/C (dose: 100.0 mg/kg/injection, schedule: Q04DX003 (ip), vehicle: saline): 105 % of control
- T/C [7]: 93 % of control
- T/C (dose: 200.0 mg/kg/injection, schedule: Q04DX003 (ip), vehicle: saline): 121 % of control
- T/C (dose: 400.0 mg/kg/injection, schedule: Q04DX003 (ip), vehicle: saline): 102 % of control

SMILES: O=c1[nH][nH]c(=O)n1O
- T/C [7]: 100 % of control
- T/C [8]: 95 % of control

SMILES: Cc1c2cc3c(c1O)C(=O)CC(O3)c1ccc(O)c(c1)-c1ccc(O)c(c1)C(=O)OCC1OC(O2)C(O)C(O)C1O (stereo not given)
- T/C (dose: 0.13 mg/kg/injection, schedule: Q01DX009 (ip), vehicle: Klucel (hydroxypropylcellulose) (HPC)): 109 % of control
- T/C (dose: 0.25 mg/kg/injection, schedule: Q01DX009 (ip), vehicle: Klucel (hydroxypropylcellulose) (HPC)): 106 % of control
- T/C (dose: 0.5 mg/kg/injection, schedule: Q01DX009 (ip), vehicle: Klucel (hydroxypropylcellulose) (HPC)): 112 % of control
- T/C (dose: 1.0 mg/kg/injection, schedule: Q01DX009 (ip), vehicle: Klucel (hydroxypropylcellulose) (HPC)): 112 % of control

SMILES: O=C(NNC(=O)c1ccc([N+](=O)[O-])cc1)c1ccccc1
- T/C (dose: 3.0 mg/kg/injection, schedule: Q01DX009 (ip), vehicle: Klucel (hydroxypropylcellulose) (HPC)): 95 % of control
- T/C (dose: 6.0 mg/kg/injection, schedule: Q01DX009 (ip), vehicle: Klucel (hydroxypropylcellulose) (HPC)): 104 % of control
- T/C (dose: 12.0 mg/kg/injection, schedule: Q01DX009 (ip), vehicle: Klucel (hydroxypropylcellulose) (HPC)): 100 % of control
- T/C [9]: 92 % of control
- T/C [4]: 104 % of control
- T/C [5]: 87 % of control
- T/C [1]: 108 % of control

SMILES: COC(=O)C12OCC34C(CC5C(C)=C(O)C(=O)CC5(C)C3C(O)C1O)OC(=O)C(OC(=O)/C=C(\C)C(C)(C)O)C24 (stereo not given)
- T/C (dose: 0.2 mg/kg/injection, schedule: Q01DX009 (ip), vehicle: saline): 165 % of control
- T/C (dose: 0.4 mg/kg/injection, schedule: Q01DX009 (ip), vehicle: saline): 165 % of control
- T/C (dose: 0.8 mg/kg/injection, schedule: Q01DX009 (ip), vehicle: saline): 163 % of control
- T/C (dose: 60.0 micrograms/kg/injection, schedule: Q01DX009 (ip), vehicle: saline + alcohol): 183 % of control
- T/C (dose: 120.0 micrograms/kg/injection, schedule: Q01DX009 (ip), vehicle: saline + alcohol): 183 % of control
- T/C (dose: 250.0 micrograms/kg/injection, schedule: Q01DX009 (ip), vehicle: saline + alcohol): 200 % of control
- T/C (dose: 500.0 micrograms/kg/injection, schedule: Q01DX009 (ip), vehicle: saline + alcohol): 211 % of control
- T/C (dose: 1000.0 micrograms/kg/injection, schedule: Q01DX009 (ip), vehicle: saline + alcohol): 238 % of control
- T/C (dose: 2000.0 micrograms/kg/injection, schedule: Q01DX009 (ip), vehicle: saline + alcohol): 194 % of control

SMILES: CC1OC(O[C@H]2/C=C/C=C/C=C/C=C/C=C/C=C/C=C/[C@H](C)[C@@H](O)[C@@H](C)[C@H](C)OC(=O)C[C@H](O)C[C@H](O)CC[C@@H](O)[C@H](O)C[C@H](O)C[C@]3(O)C[C@H](O)[C@@H](C(=O)O)[C@H](C2)O3)C(O)C(N)C1O (stereo not given in full)
- T/C (dose: 20.0 mg/kg/injection, schedule: Q04DX003 (ip), vehicle: clinical formulation): 109 % of control
- T/C (dose: 40.0 mg/kg/injection, schedule: Q04DX003 (ip), vehicle: clinical formulation): 97 % of control

SMILES: CC(=O)CC(C)=O.CC(=O)CC(C)=O.[Fe]
- T/C (dose: 6.25 mg/kg/injection, schedule: Q01DX009 (ip), vehicle: saline): 113 % of control
- T/C (dose: 6.25 mg/kg/injection, schedule: Q04DX003 (ip), vehicle: saline): 113 % of control
- T/C (dose: 12.5 mg/kg/injection, schedule: Q01DX009 (ip), vehicle: saline): 104 % of control
- T/C (dose: 12.5 mg/kg/injection, schedule: Q04DX003 (ip), vehicle: saline): 113 % of control
- T/C [10]: 113 % of control
- T/C (dose: 25.0 mg/kg/injection, schedule: Q04DX003 (ip), vehicle: saline): 113 % of control
- T/C (dose: 35.0 mg/kg/injection, schedule: Q04DX003 (ip), vehicle: saline): 113 % of control

SMILES: CCOC(=O)/C(=N\O)C1=CSC2=NNC(C)(C)N12
- T/C [3]: 95 % of control
- T/C (dose: 200.0 mg/kg/injection, schedule: Q01DX009 (ip), vehicle: saline with Tween-80): 92 % of control

SMILES: Cc1noc(N)c1[N+](=O)[O-]
- T/C [10]: 95 % of control
- T/C [11]: 109 % of control
- T/C [6]: 109 % of control

SMILES: CCCNCC(O)c1cc(C(F)(F)F)nc2c(C(F)(F)F)cccc12 (stereo not given)
- T/C [3]: 115 % of control
- T/C [12]: 104 % of control

SMILES: CCCc1cc(CCC)n2nc(N)nc2n1
- T/C [3]: 109 % of control
- T/C [12]: 100 % of control
